How the values were obtained:
[1] = target: T1, full-length SHP2-E76K oncogenic mutant (Homo sapiens, UniProt Q06124, E76K); assay: DiFMUP fluorescence phosphatase inhibition assay, SHP2-E76K; format: biochemical; settings: DiFMUP at Km (20 μM), 10-point dose–response, pH 6.0
T1 construct: Recombinant human full-length SHP2 (1–594) WT and E76K mutants; made in house
T1 sequence (Q06124 1-593 E76K): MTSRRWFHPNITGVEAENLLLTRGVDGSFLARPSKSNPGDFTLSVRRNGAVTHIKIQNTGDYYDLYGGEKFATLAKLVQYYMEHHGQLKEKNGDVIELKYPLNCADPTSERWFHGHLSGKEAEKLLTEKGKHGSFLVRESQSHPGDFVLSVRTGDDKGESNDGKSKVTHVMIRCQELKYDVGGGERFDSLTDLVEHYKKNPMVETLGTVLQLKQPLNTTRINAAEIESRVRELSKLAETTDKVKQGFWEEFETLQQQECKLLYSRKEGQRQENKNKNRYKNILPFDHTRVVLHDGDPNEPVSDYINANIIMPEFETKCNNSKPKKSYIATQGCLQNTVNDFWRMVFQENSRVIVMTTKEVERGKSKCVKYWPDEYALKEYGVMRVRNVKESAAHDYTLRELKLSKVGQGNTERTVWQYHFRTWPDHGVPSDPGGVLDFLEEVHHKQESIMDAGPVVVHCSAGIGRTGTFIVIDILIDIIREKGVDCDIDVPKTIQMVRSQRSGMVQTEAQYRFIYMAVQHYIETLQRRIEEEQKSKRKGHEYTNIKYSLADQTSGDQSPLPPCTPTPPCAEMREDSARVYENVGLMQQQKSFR
From the text: To test the synthesized compounds for their potential to inhibit SHP2 activity, a fluorescence intensity-based assay using 6,8-difluoro-4-methylumbelliferyl phosphate (DiFMUP) as the substrate was adapted for three recombinant SHP2 constructs: (1) the SHP2 catalytic domain (SHP2cat; residues 248–527), (2) the full-length SHP2-E76K oncogenic mutant, and (3) the full-length SHP2 WT (SHP2-WT). The recombinant SHP2 proteins were expressed and purified as described previously ([36]). A dually phosphorylated peptide derived from the insulin receptor substrate 1 (IRS-1) served as a surrogate binding protein and was used to activate SHP2-WT ([30], [36]). […] Michaelis–Menten experiments to determine the DiFMUP Michaelis–Menten constant (Km) for each SHP2 construct were performed as described previously ([36]) and yielded the following values: SHP2-WT, Km = 60 μM; SHP2-E76K, Km = 20 μM; and SHP2cat, Km = 20 μM. Relative maximum rates (Vmax) of the DiFMUP reactions expressed as relative fluorescence units per minute (RFU/min) were as follows: SHP2-WT, Vmax = 871 RFU/min; SHP2-E76K, Vmax = 2730 RFU/min; and SHP2cat, Vmax = 2912 RFU/min. IC50 values for each compound were determined from initial rates in 10-point dose–response assays using DiFMUP at a concentration corresponding to its Km value for the respective SHP2 construct. […] Replacements for the benzothiophenone were explored using analog #10.
Recombinant human full-length SHP2 (1–594) WT and E76K mutants, as well as the SHP2cat (248–527), were expressed and purified as described before ([36], [41]). Recombinant human PTP1B (1–300) and the codon-optimized STEP (280–566) catalytic domains were cloned into PET-15b and expressed as N-His-tagged fusion proteins. For expression, transformed BL21(DE3) cells were grown and induced similar as described for SHP2. Collected cells were resuspended in lysis buffer (25 mM Tris, pH 7.5, 300 mM NaCl, 50 mM imidazole, and 10% glycerol) with 100 mg/l RNaseA and were lysed with two passages using a microfluidizer. The lysate was clarified by centrifugation at 15,000g for 50 min and applied to nickel–nitrilotriacetic acid resin. The column resin was washed, and the PTP1B or STEP protein was eluted in lysis buffer at 300 mM imidazole. The PTP1B or STEP protein was further purified by S75 size-exclusion chromatography in 50 mM Tris, pH 7.5, 50 mM NaCl. The eluted peak fractions were supplemented with tris(2-carboxyethyl)phosphine to 10 mM, concentrated by ultrafiltration, and stored at −80 °C. The purified yield of PTP1B was 33 mg/l cell culture; the yield of STEP was 16 mg/l cell culture.
SHP2 inhibitors were tested at RT in a 384-well plate format standard phosphatase fluorescence intensity assay using DiFMUP (Invitrogen/Thermo Fisher Scientific) as a substrate and a total reaction volume of 25 μl. SHP2 inhibitors or vehicle (DMSO) were spotted in triplicate into a black Greiner FLUOTRAC 200 384-well microplate (catalog no.: 781076; Greiner) for a 10-point dose–response assay using an Echo 555 Liquid Handler (Labcyte, Inc). PTP working solutions were prepared at a 0.625 nM concentration (for a final concentration of 0.5 nM) in buffer containing 50 mM Bis–Tris, pH 6.0, 50 mM NaCl, 5 mM DTT, and 0.01% Tween-20. Prior to the assay, a dually phosphorylated IRS-1 peptide (625 nM [500 nM final] ([30])) was added to full-length WT SHP2 working solutions and incubated for 20 min. DiFMUP working solutions at 5× final concentration were prepared in 50 mM Bis–Tris, pH 6.0, 50 mM NaCl, and 0.01% Tween-20. About 20 μl of PTP working solution was dispensed into the microplate and incubated with inhibitor for 20 min at RT. […] The reaction was initiated by addition of 5 μl DiFMUP working solutions. Fluorescence intensity was measured in kinetic mode (every minute for 7 or 10 min) using a Tecan Spark Multimode Microplate Reader (Tecan) with an excitation wavelength of 360 nm and an emission wavelength of 460 nm. […]

[2] = test system: Kasumi-1 acute myeloid leukemia (AML) cells; assay: Cell viability (CellTiter-Glo), Kasumi-1; format: cell-based; settings: for effect on Kasumi-1 cell growth: various concentrations, 3 days
Procedure: Inhibition of SHP2 has been reported to inhibit the growth of cancer cells including Kasumi-1 acute myeloid leukemia (AML) and KYSE-520 esophageal cancer cells ([30]). […] Thus, we treated two TNBC cell lines, BT-549 and MDA-MB-468, with SBI-4668 or the SHP2 allosteric inhibitor SHP099 at various concentrations and determined cell viability after 72 h, compared with the vehicle control (Fig. 4C). […] Next, we performed an 11-day colony formation assay with TNBC cells treated with SBI-4668 or SHP099 at 5, 10, or 20 μM (Fig. 4D).
Viability of AML and esophageal carcinoma cells was assessed using the ATP-depletion assay CellTiter-Glo (Promega). Cells were harvested at 1 × 10^6/ml to 2 × 10^6 cells/ml with cell numbers determined by trypan blue using the Countess Cell counter (Thermo Scientific) and resuspended in culture media. About 3000 cells (in 20 μl) were seeded in a 384-well format white and clear-bottom microplate (catalog no.: 781098; Greiner) spotted with test compound or vehicle control (DMSO) using an Echo 555 Liquid Handler. Cells were incubated for 3 days, before 10 μl of CellTiter-Glo reagent mix was added to each well and incubated for 10 min at RT. Luminescence was read on a Tecan Spark Multimode Microplate Reader, and data were analyzed using GraphPad Prism software.

IC50 [1] [µM]	Structure (SMILES)	IC50 ([2]; Homo sapiens, Kasumi 1, 72 h, 3 days in culture) [µM]	effect on Kasumi-1 cell growth [2]
4.1	O=C1/C(=C/c2ccc(-c3ccc(O)c(-c4nn[nH]n4)c3)o2)Sc2ccccc21 [SBI-3405, (Z)-2-((5-(4-Hydroxy-3-(2H-tetrazol-5-yl)phenyl)furan-2-yl)methylene)benzo[b]thiophen-3(2H)-one]	–	–
2.3	O=C1CCCC1=Cc1ccc(-c2ccc(O)c(C(=O)Nc3ccccc3)c2)o1 [SBI-3192, 2-Hydroxy-5-(5-((2-oxocyclopentylidene)methyl)furan-2-yl)-N-phenylbenzamide]	–	–
0.48	Nc1ccc(NC(=O)c2cc(-c3ccc(/C=C4\Sc5ccccc5C4=O)o3)ccc2O)cc1 [SBI-2130, (Z)-N-(4-Aminophenyl)-2-hydroxy-5-(5-((3-oxobenzo[b]thiophen-2(3H)-ylidene)methyl)furan-2-yl)benzamide]	–	dose-dependently inhibited cancer cell growth
4.2	N#Cc1cc(-c2ccc(/C=C3\Sc4ccccc4C3=O)o2)ccc1O [SBI-3404, (Z)-2-Hydroxy-5-(5-((3-oxobenzo[b]thiophen-2(3H)-ylidene)methyl)furan-2-yl)benzonitrile]	–	dose-dependently inhibited cancer cell growth

Structure (SMILES)	IC50 [1] [µM]	IC50 ([2]; Homo sapiens, Kasumi 1, 72 h, 3 days in culture) [µM]	effect on Kasumi-1 cell growth [2]
O=C(Nc1ccccc1)c1cc(-c2ccc(/C=C3\Sc4ccccc4C3=O)o2)ccc1O [SBI-4668, (Z)-2-Hydroxy-5-(5-((3-oxobenzo[b]thiophen-2(3H)-ylidene)methyl)furan-2-yl)-N-phenylbenzamide]	1.8	8.5	dose-dependently inhibited cancer cell growth

Reference: article PMC8760490, “Discovery of novel furanylbenzamide inhibitors that target oncogenic tyrosine phosphatase SHP2 in leukemia cells” (The Journal of Biological Chemistry, 2021)
